For one test, the target named is GST tagged truncated human mutant G2019S LRRK2 (Homo sapiens (Human), UniProt Q5S007, G2019S). In words: LRRK2 Km ATP LanthaScreen Assay. It is filed as biochemical. Conditions: G2019S LRRK2, 134 μM ATP (Km ATP), mean values. In outline: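 Enzyme (GST-tagged, truncated) was preincubated with compound for 15 min at RT in 50 mM Tris pH 8.5, 10 mM MgCl2, 0.01% Brij-35, 1 mM EGTA, 2 mM DTT and 0.05 mM orthovanadate. Fluorescein-LRRKtide and 134 μM ATP (Km) were then added for 90 min. EDTA and Tb-anti-pERM antibody stopped the reaction; the TR-FRET 520/495 ratio gave 4-parameter IC50s, reported as mean pIC50.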
GST tagged truncated human mutant G2019S LRRK2, sequence (Q5S007 970-2527 G2019S): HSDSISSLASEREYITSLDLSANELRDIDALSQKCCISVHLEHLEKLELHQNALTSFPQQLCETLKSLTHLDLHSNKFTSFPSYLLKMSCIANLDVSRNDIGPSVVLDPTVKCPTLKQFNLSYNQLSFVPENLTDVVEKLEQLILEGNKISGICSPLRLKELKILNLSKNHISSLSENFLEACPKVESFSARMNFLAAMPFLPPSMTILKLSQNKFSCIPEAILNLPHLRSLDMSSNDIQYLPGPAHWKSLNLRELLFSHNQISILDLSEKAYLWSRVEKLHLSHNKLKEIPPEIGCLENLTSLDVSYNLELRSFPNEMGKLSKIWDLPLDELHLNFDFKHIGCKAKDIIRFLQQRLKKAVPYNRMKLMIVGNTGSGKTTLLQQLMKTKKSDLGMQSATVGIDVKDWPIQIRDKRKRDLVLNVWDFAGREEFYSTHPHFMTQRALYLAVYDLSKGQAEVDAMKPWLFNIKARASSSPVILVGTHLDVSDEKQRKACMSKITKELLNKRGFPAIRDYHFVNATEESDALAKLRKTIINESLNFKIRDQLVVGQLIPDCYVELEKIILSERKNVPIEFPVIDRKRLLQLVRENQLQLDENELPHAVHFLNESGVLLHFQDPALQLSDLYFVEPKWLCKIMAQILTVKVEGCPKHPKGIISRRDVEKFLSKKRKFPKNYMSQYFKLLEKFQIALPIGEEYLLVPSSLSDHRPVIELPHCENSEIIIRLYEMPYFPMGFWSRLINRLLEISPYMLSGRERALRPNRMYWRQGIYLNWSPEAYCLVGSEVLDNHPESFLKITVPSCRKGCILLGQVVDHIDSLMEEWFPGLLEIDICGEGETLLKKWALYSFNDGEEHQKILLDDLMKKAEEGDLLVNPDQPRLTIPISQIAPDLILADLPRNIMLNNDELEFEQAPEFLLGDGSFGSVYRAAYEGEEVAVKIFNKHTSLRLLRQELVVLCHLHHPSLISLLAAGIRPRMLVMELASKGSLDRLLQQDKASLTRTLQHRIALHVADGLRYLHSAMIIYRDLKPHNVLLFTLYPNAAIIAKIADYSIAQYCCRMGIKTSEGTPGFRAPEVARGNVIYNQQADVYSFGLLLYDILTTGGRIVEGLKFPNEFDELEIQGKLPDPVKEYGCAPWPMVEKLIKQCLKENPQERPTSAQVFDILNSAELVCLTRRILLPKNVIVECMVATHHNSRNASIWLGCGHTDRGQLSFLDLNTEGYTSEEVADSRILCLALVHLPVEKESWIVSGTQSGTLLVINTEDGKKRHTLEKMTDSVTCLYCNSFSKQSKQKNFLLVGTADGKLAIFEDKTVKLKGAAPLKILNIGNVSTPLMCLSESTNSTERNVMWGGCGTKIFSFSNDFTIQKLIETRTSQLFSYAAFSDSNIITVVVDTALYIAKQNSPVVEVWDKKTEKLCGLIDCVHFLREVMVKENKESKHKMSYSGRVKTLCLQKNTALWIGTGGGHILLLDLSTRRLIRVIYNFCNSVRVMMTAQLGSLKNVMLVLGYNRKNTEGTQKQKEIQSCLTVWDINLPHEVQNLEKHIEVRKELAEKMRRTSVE
On to `Cc1cc2cnc(Nc3cnn(C4CC4(F)F)c3Cl)nc2cc1[C@@H]1CCN([C@@]2(C)COC[C@H]2O)C[C@H]1F` (single isomer, unassigned) [Ex-4.147, (R)(3S,4S)(3S,4S) or (R)(3S,4S)(3R,4R) or (R)(3R,4R)(3S,4S) or (R)(3R,4R)(3R,4R) or (S)(3S,4S)(3S,4S) or (S)(3S,4S)(3R,4R) or (S)(3R,4R)(3S,4S) or (S)(3R,4R)(3R,4R) 4-[4-(2-{[5-chloro-1-(2,2-difluorocyclopropyl)-1H-pyrazol-4-yl]amino}-6-methylquinazolin-7-yl)-3-fluoropiperidin-1-yl]-4-methyloxolan-3-ol], for which the “LRRK2 pIC50” value was above 9.20.
Still for that read-out and setting: the value for `Cc1cc2cnc(Nc3cnn(C)c3C)nc2cc1C1CCN([C@@H]2COC[C@@H]2O)CC1` (single isomer, unassigned) [Ex-2.79, (3S,4S) or (3R,4R) 4-(4-{2-[(1,5-dimethyl-1H-pyrazol-4-yl)amino]-6-methylquinazolin-7-yl}piperidin-1-yl)oxolan-3-ol] was above 9.20.
The same measure, in the same setting: the value for `N#Cc1cc2cnc(Nc3cnn(C4CC4(F)F)c3Cl)nc2cc1[C@@H]1CCN(C2COC2)C[C@H]1F` (single isomer, unassigned) [Ex-6.5, (R)(3S,4S) or (S)(3S,4S) or (R)(3R,4R) or (S)(3R,4R) 2-((5-chloro-1-(2,2-difluorocyclopropyl)-1H-pyrazol-4-yl)amino)-7-(3-fluoro-1-(oxetan-3-yl)piperidin-4-yl)quinazoline-6-carbonitrile] was above 9.20; that for `Cc1nn(C)c(Nc2ncc3cc(Cl)c(C4CCN([C@]5(C)COC[C@@H]5O)CC4)cc3n2)c1C#N` (single isomer, unassigned) [Ex-2.86, (3S,4S) or (3R,4R) 5-({6-chloro-7-[1-(4-hydroxy-3-methyloxolan-3-yl)piperidin-4-yl]quinazolin-2-yl}amino)-l,3-dimethyl-1H-pyrazole-4-carbonitrile] was 8.05; that for `CC1(N2CCC(c3cc4nc(Nc5cnn(C67CC(CO)(C6)C7)c5)ncc4cc3Cl)CC2)COC1` [Ex-2.57, {3-[4-({6-chloro-7-[1-(3-methyloxetan-3-yl)piperidin-4-yl]quinazolin-2-yl}amino)-1H-pyrazol-1-yl]bicyclo[1.1.1]pentan-1-yl}methanol] was above 9.20.
Still for that read-out and setting: the value for `Cc1cc(Nc2ncc3cc(Cl)c(C4CCN([C@]5(C)COC[C@@H]5O)CC4)cc3n2)n(C)n1` (single isomer, unassigned) [Ex-1.25, (3S,4S) or (3R,4R) 4-(4-{6-chloro-2-[(1,3-dimethyl-1H-pyrazol-5-yl)amino]quinazolin-7-yl}piperidin-1-yl)-4-methyloxolan-3-ol] was 8.99; that for `CC(C)(O)Cn1ncc(Nc2ncc3cc(Cl)c([C@H]4CCN(C5COC5)C[C@@H]4F)cc3n2)c1Cl` (single isomer, unassigned) [Ex-4.44, (3S,4S) or (3R,4R) 1-[5-chloro-4-({6-chloro-7-[3-fluoro-1-(oxetan-3-yl)piperidin-4-yl]quinazolin-2-yl}amino)-1H-pyrazol-1-yl]-2-methylpropan-2-ol] was above 9.20; that for `Clc1cc2cnc(Nc3cnn(CC4CC4)c3Cl)nc2cc1C1CCNCC1` [Ex-4.90, 6-chloro-N-[5-chloro-1-(cyclopropylmethyl)-1H-pyrazol-4-yl]-7-(piperidin-4-yl)quinazolin-2-amine] was above 9.20.
With `CC(C)(O)Cn1ncc(Nc2ncc3cc(Cl)c([C@@H]4CCN(C5(C)COC5)C[C@H]4F)cc3n2)c1Cl` (single isomer, unassigned) [Ex-2.1, (3S,4S) or (3R,4R) 1-(5-chloro-4-((6-chloro-7-(3-fluoro-1-(3-methyloxetan-3-yl)piperidin-4-yl)quinazolin-2-yl)amino)-1H-pyrazol-1-yl)-2-methylpropan-2-ol], the “LRRK2 pIC50” value was 8.79.
On to `Cc1c(Nc2ncc3cc(Cl)c(C4CCN(C[C@@H](O)c5c(F)cccc5F)CC4)cc3n2)cnn1C1CC1` [Ex-4.209, (1S)-2-(4-{6-chloro-2-[(1-cyclopropyl-5-methyl-1H-pyrazol-4-yl)amino]quinazolin-7-yl}piperidin-1-yl)-1-(2,6-difluorophenyl)ethan-1-ol], for which the “LRRK2 pIC50” value was determined as 8.16.
On the same count and under the same terms, with `Cc1c(Nc2ncc3cc(Cl)c(C4CCN(C[C@H](O)c5cc(F)cc(F)c5)CC4)cc3n2)cnn1C1CC1` [Ex-4.198, (1R)-2-(4-{6-chloro-2-[(1-cyclopropyl-5-methyl-1H-pyrazol-4-yl)amino]quinazolin-7-yl}piperidin-1-yl)-1-(3,5-difluorophenyl)ethan-1-ol] the figure was 7.88; with `Cc1c(Nc2ncc3cc(Cl)c([C@H]4CCN(C5COC5)C[C@@H]4F)cc3n2)cnn1CC(C)(C)O` (single isomer, unassigned) [Ex-4.64, (3S,4S) or (3R,4R) 1-[4-({6-chloro-7-[3-fluoro-1-(oxetan-3-yl)piperidin-4-yl]quinazolin-2-yl}amino)-5-methyl-1H-pyrazol-1-yl]-2-methylpropan-2-ol], 8.85; with `Cc1cc2cnc(Nc3cnn(C4CC4)c3Cl)nc2cc1[C@@H]1CCN(C2COCC2F)C[C@H]1F` (single isomer, unassigned) [Ex-7.9, (3S,4R)(3S,4S) or (3R,4S)(3S,4S) or (3R,4R)(3S,4S) or (3S,4S)(3S,4S) or (3S,4R)(3R,4R) or (3R,4S)(3R,4R) or (3R,4R)(3R,4R) or (3S,4S)(3R,4R) N-(5-chloro-1-cyclopropyl-1H-pyrazol-4-yl)-7-[3-fluoro-1-(4-fluorooxolan-3-yl)piperidin-4-yl]-6-methylquinazolin-2-amine], 9.04.

The same test, now with this note: G2019S LRRK2, 134 μM ATP (Km ATP), mean values; read-out: LRRK2 pIC50 (converted).
Take `Cc1c(Nc2ncc3cc(Cl)c(C4CCN(C5(C)COC5)CC4)cc3n2)cnn1C1CCOC1` (single isomer, unassigned) [Ex-2.25, (S) or (R) 6-chloro-7-[1-(3-methyloxetan-3-yl)piperidin-4-yl]-N-[5-methyl-1-(oxolan-3-yl)-1H-pyrazol-4-yl]quinazolin-2-amine]: the IC50 is 0.891 nM.
On the same count and under the same terms, with `COCC12CC(n3ncc(Nc4ncc5cc(Cl)c(C6CCN(C7(C)COC7)CC6)cc5n4)c3C)(C1)C2` [Ex-2.32, 6-chloro-N-{1-[3-(methoxymethyl)bicyclo[1.1.1]pentan-1-yl]-5-methyl-1H-pyrazol-4-yl}-7-[1-(3-methyloxetan-3-yl)piperidin-4-yl] quinazolin-2-amine] the figure was below 0.631 nM.
As for `CCN1CC[C@@H](c2cc3nc(Nc4cnn(CC(C)(C)O)c4Cl)ncc3cc2Cl)[C@H](F)C1` (single isomer, unassigned) [Ex-4.5, (3S,4S) or (3R,4R) 1-(5-chloro-4-((6-chloro-7-(1-ethyl-3-fluoropiperidin-4-yl)quinazolin-2-yl)amino)-1H-pyrazol-1-yl)-2-methylpropan-2-ol], the IC50 is 1.62 nM.
For the compound `Clc1cc2cnc(Nc3cnn(C4CC4)c3Cl)nc2cc1C1CCN(C2CCOC2)CC1` (single isomer, unassigned) [Ex-4.49, (S) or (R) 6-chloro-N-(5-chloro-1-cyclopropyl-1H-pyrazol-4-yl)-7-[1-(oxolan-3-yl)piperidin-4-yl]quinazolin-2-amine], the IC50 is below 0.631 nM.

(Values after patent publication US12540131B2 (Merck Sharp & Dohme LLC, priority 2019, dated 2026).)
